The results in this text go back to article doi:10.64898/2025.12.01.691523v1 (biorxiv, 2025).

Usually Kd stands for the equilibrium constant for the complex coming apart.

The target in one experiment is bacterioferritin (Bftn). Conditions: buffer not given in main text.
The target of another experiment is AcFtnHCH (Anopheles culicifacies, UniProt A0A182M0V3). Nature of the experiment: biochemical.
Sequence of AcFtnHCH (A0A182M0V3 21-216): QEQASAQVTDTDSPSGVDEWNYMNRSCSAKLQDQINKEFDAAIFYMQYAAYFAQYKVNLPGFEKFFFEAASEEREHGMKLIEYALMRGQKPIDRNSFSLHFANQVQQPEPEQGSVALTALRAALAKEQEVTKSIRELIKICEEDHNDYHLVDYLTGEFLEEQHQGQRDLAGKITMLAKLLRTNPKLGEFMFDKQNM

As for `C=CC1=C(C)C2=Cc3c(C=C)c(C)c4[n]3[Fe]([Cl])[n]3c(c(C)c(CCC(=O)O)c3=CC3=NC(=C4)C(C)=C3CCC(=O)O)=CC1=N2` [hemin], the figures for the Kd at bacterioferritin (Bftn) and on AcFtnHCH were 136 ± 21.9 nM and 67.8 ± 6.5 nM, respectively.
